Data set [1] concerns human Lennert's T cell lymphoma KT-3 cells. The data set can be described thus: Inhibition of IL-6-induced proliferation of KT-3 cells (CellTiter Glo viability). The format is cell-based. As to conditions: read-out: IC50 (the concentration at which a compound suppresses cell growth by 50%), hIL-6 2.5 ng/ml, 48 hours. Here is the method:
Inhibitory Effects on Proliferation of Human Lernert's T Cell Lymphoma KT-3
Inhibitory effects of compounds of this invention on the growth of human Lennert's T cell lymphoma KT-3 cells, an IL-6-dependent cell line, were determined as described below. […] To experimental wells, test compounds at various concentrations (in triplicates) were added immediately after the cells were plated. To the control wells, an equal volume of vehicle, DMSO (0.1% v/v), was added. After incubating the cells with the compounds or in vehicle for 48 hours, cell viability was assessed using a CellTiter Glo Luminescent Cell Viability Assay Kit (Promega, Madison, Wis.). The resultant luminescence was quantified using Microplate Luminometer LB96V (EG&G BERTH HOLD) according to the manufacturer's protocol. The cell surviving rate was calculated by dividing the luminescence value of compound-treated cells with that of vehicle-treated cells.

Data set [2] relates to STAT3. Nature of the data set: Western blot analysis of STAT3 protein in KT-3 cells. As to conditions: KT-3 cells, 1, 5, or 20 μM, 0.5-6 hours. It counts as cell-based, human. Here is the method: (§1) Western Blot Analysis of MRG, STAT1, STAT3, and STAT5 Proteins in KT-3 Cells
(§2) Western Blot analysis was performed as described in Kawashima et al., J. Immunol. 2001, 167:3652-3660, with minor modifications. Briefly, KT-3 cells were treated with 1, 5, or 20 μM of compound 6 or vehicle alone in the above described IL-6-containing medium. At various time points after incubation (i.e., 0.5, 1, 3, and 6 hours after the treatment), cells were harvested and lysed using a lysis buffer (1.0% Triton X-100, 50 mM Tris-HCl (pH 7.5), 0.1 mM EDTA, 150 mM NaCl, 200 μM Na3VO4, 50 mM NaF, 1 mM dithiothreitol, 0.4 mM phenylmethylsulfonyl fluoride, 3 μg/ml of aprotinin, 2 μg/ml of pepstatin A, 1 μg/ml of leupeptin) at 2×10^7 cells/ml on ice for 30 min. Cell lysates were harvested by centrifugation at 12,000×g for 15 min. The samples (1×10^5 cell equivalent/lane) were subjected to sodium dodecyl sulfate-polyacrylamide gel electrophoresis and subsequently transferred onto Immobilon filters (Millipore). After blocked with 5% BSA, the filter was probed with anti-pSTAT3, STAT3, STAT5, STAT1, MRG or Actin Abs. The rabbit polyclonal anti-STAT3, anti-STAT5, anti-STAT1, and anti-Actin antibodies (Abs), and mouse monoclonal anti-pSTAT3 Ab (B-7) were obtained from Santa Cruz Biotechnology. Affinity purified anti-MRG Ab was prepared as described previously in Hirose et al., J. Biol. Chem. 276:5821-5828. […]

Data set [3] concerns STAT5. The data set can be described thus: Western blot analysis of STAT5 protein in KT-3 cells. It counts as cell-based, human. Conditions: KT-3 cells, 1, 5, or 20 μM, 0.5-6 hours. Here is the method: as §1, §2
Data set [4] relates to pSTAT3. The data set can be described thus: Western blot analysis of STAT3 phosphorylation (pSTAT3) in KT-3 cells. The format is cell-based, human. As to conditions: KT-3 cells, 1, 5, or 20 μM, 0.5-6 hours. Here is the method:
as §1, §2
For orientation: A western blot detects proteins with antibodies after separation by electrophoresis.

The test system of data set [5] is STAT1. Nature of the data set: Western blot analysis of STAT1 protein in KT-3 cells. The format is cell-based, human. As to conditions: KT-3 cells, 1, 5, or 20 μM, 0.5-6 hours. Here is the method:
as §1, §2

Data set [6] deals with MRG (MgcRacGAP). The data set can be described thus: Western blot analysis of MRG protein in KT-3 cells. It counts as cell-based, human. Conditions: KT-3 cells, 1, 5, or 20 μM, 0.5-6 hours. Here is the method:
as §1, §2

Data set [7] can be described thus: Inhibition of growth of various human tumor cell lines (MTT). It counts as cell-based. Conditions: Homo sapiens, range over all tumor cell lines tested, 72 h, read-out: IC50 values, growth of all tumor cells tested. Here is the method:
(§3) Inhibition of Growth of Various Human Tumor Cell Lines
(§4) The inhibitory effects of Compound 6 were determined as described below on the growth of colon cancer cells (HCT116, HT29, SW480, and SW620), colon adenocarcinoma cells (Colo205), prostate adenocarcinoma cells (PC-3 and Dul145), prostate carcinoma cells (CWR22RV and LNCap), non-small cell lung carcinoma cells (NCI-H1299), lung adnocarcinoma cells (A549), large cell lung carcinoma cells (NCI-H460), breast metastatic carcinoma cells (MDA-MB-453), breast ductal carcinoma cells (T-47D), breast adnocarcinoma cells (MCF7), hepatocellular carcinoma cells (Huh-7 and HepG2), pancreatic carcinoma cells (PANC-1), cervix adnocarcinoma cells (Hela), IL-6-dependent Lennert's T-cell lymphoma cells (KT-3), IL-6-dependent multiple myeloma cells (INA-6), multiple myeloma cells (KMM-1 and U266), myeloid leukemia cells (HL-60), and T-cell leukemia cells (Jurkat). […] The viability of the tumor cells was then assessed using the tetrazolium-based calorimetric assay (MTT) as described in Su et al., J Mol Cell Cardiol. […] The resultant formazan crystals were solubilized with MTT lysis buffer (50% DMF, 24 mM HCl, 2% Acetic Acid, 5% SDS) and the absorbance at 595 nm was measured using a Benchmark microplate reader (BIO-RAD, Hercules, Calif.). […]

In data set [8] the test system is various human tumor cell lines (HCT116, HT29, SW480, SW620, Colo205, PC-3, Dul145, CWR22RV, LNCap, NCI-H1299, A549, NCI-H460, MDA-MB-453, T-47D, MCF7, Huh-7 …). The description is as above. The format is cell-based. Conditions: 0 to 5 μM, 72 h. Here is the method: as §3, §4
The test system of data set [9] is HCT-116 cells. The data set can be described thus: Human colon cancer (HCT-116) mouse xenograft model. It counts as in vivo. Conditions: athymic nude mice, HCT-116 xenograft, 40 mg/kg i.p. daily, days 0-4 and 7-10. Here is the method:
Inhibitory Effect on Human Colon Cancer (HCT-116) in a Mouse Xenograft Model
The in vivo experiments were carried out under an Institutional Animal Care and Use Committee-approved protocol and followed Institutional guidelines for proper and humane use of animals in research. Six-week-old female athymic nude mice were purchased from the Harlan Laboratory. Each of eight mice was injected subcutaneously with 1×10^6 HCT-116 cells mixed with Matrigel (BD Bioscience) at the left flank. After injection, tumors were allowed to grow for 5 days into a palpable size (volume ˜100 mm^3) before treatment. Mice were randomized into two groups (n=4 per group). The control group was injected with a vehicle solution only (i.e., 10% DMSO and 90% corn oil), while the experimental group received a daily injection (i.p.) of compound 6 (at a dose of 40 mg/kg body weight, dissolved in the vehicle solution) from days 0 (the initiation day of injection) to 4 and from days 7 to 10. The sizes of tumors were measured twice a week using a Vernier caliper and calculated using the following formula: length×width×height×0.5236, as described in Rockwell et al., J Natl. Cancer Inst. 1972; 49:735-747.

pIC50: −log10 of the molar value. Counter-ions that a name gives are not always drawn.

With `O=C1/C(=C/c2cccc(O)c2)CN(C(=O)C2CC2)C/C1=C\c1cccc(O)c1` [Compound 16], the pIC50 in data set [1] is ≥ 7.30.

As for `O=C(/C=C/c1cccc(O)c1)/C=C/c1ccccc1F` [Compound 42], the melting point was 159 to 160 °C.

In the case of `COc1ccc(/C=C/C(=O)/C=C/c2cccc(O)c2)cc1OC` [Compound 38], the melting point is 159 to 160 °C.

In the case of `O=C(/C=C/c1cccc(O)c1)/C=C/c1cccc(OCCCN2CCCCC2)c1` [Compound 56], in data set [1], the pIC50 is ≥ 7.30.

With `CCS(=O)(=O)Oc1cccc(/C=C/C(=O)/C=C/c2cccc(OS(=O)(=O)CC)c2)c1` [Compound 6], in data set [2], the STAT3 protein level result is “down-regulated”. The STAT5 protein level entry in [3] is “down-regulated”. Besides, the pIC50 in data set [1] was ≥ 7.30; in data set [7], 5.26 to 7.70. In addition, the “phosphorylation of STAT3 protein” value in data set [4] is listed as “inhibited phosphorylation”. The “expression of STAT1” value in data set [5] is listed as “no effect”. Also, the MRG protein level entry in data set [6] is “down-regulated”. Further, the “inhibitory effects on the growth of all tumor cells tested” value in [8] is “dose-dependent inhibitory effects”. Besides, in [9], the “human colon cancer growth (tumor size)” value is on record as “inhibited human colon cancer growth”.

`COc1ccc(/C=C/C(=O)/C=C/c2cccc(O)c2)cc1` [Compound 39]: the melting point is 152 to 153 °C.

As to `CCN(CC)CCOc1cccc(/C=C2\CN(C(=O)C3CC3)C/C(=C\c3cccc(O)c3)C2=O)c1` [Compound 45], the pIC50 in data set [1] was ≥ 7.30.

As to `CCS(=O)(=O)Oc1cccc(/C=C/C(=O)/C=C/c2ccc(OS(=O)(=O)CC)c(OS(=O)(=O)CC)c2)c1` [Compound 43], the melting point was 102 to 103 °C.

Turning to `O=C(/C=C/c1cccc(O)c1)/C=C/c1cccc(C(F)(F)F)c1` [Compound 41], the melting point lay in the range of 138 to 139 °C.

As for `CCN(CC)CCOc1cccc(/C=C/C(=O)/C=C/c2cccc(O)c2)c1` (as salt: succinic acid salt) [Compound 47], the melting point fell in the range of 104 to 106 °C.

Consider `CCN(CC)CCOc1cccc(/C=C2\CN(C(=O)C3CC3)C/C(=C\c3cccc(OCCN(CC)CC)c3)C2=O)c1` [Compound 46], for which the pIC50 in data set [1] was ≥ 7.30.

As to `CCS(=O)(=O)Oc1cccc(/C=C/C(=O)/C=C/c2cccc(OS(=O)(=O)CC)c2OS(=O)(=O)CC)c1` [Compound 26], the pIC50 in data set [1] was ≥ 7.30.

As for `O=C(/C=C/c1cccc(O)c1)/C=C/c1cccc(OCCN2CCCCC2)c1` [Compound 57], in [1], the pIC50 is ≥ 7.30.

Turning to `CCN(CC)CCOc1cccc(/C=C/C(=O)/C=C/c2cccc(O)c2O)c1` [Compound 35], the pIC50 in data set [1] is ≥ 7.30.

With `CCN(CC)CCOc1cccc(/C=C/C(=O)/C=C/c2cccc(O)c2)c1` [Compound 19], the pIC50 in [1] is ≥ 7.30.

In the case of `CCP(=O)(CC)Oc1cccc(/C=C/C(=O)/C=C/c2cccc(OP(=O)(CC)CC)c2)c1` [Compound 18], in data set [1], the pIC50 is ≥ 7.30.

For `CCN(CC)CCOc1cccc(/C=C/C(=O)/C=C/c2cccc(OCCN(CC)CC)c2O)c1` [Compound 36], the pIC50 in data set [1] is ≥ 7.30.

As for `CCS(=O)(=O)Oc1cccc(/C=C/C(=O)/C=C/c2cc(OS(=O)(=O)CC)cc(OS(=O)(=O)CC)c2)c1` [Compound 27], the pIC50 in [1] is ≥ 7.30.

One may read the melting point as the temperature of the solid-liquid transition.

The values are drawn from patent US9359279B2, “Treatment of cancer, inflammatory disease, and autoimmune disease” (AndroScience Corporation, priority 2010, dated 2016).
